Measured values reported in paper PMC7756392, “Syntheses of Thailandepsin B Pseudo‐Natural Products: Access to New Highly Potent HDAC Inhibitors via Late‐Stage Modification” (Chemistry (Weinheim an Der Bergstrasse, Germany), 2020).

Tests used:
human recombinant HDAC1 = biological target: T1, human recombinant HDAC1 (Homo sapiens, UniProt Q13547); test: ZMAL trypsin assay, HDAC1; assay type: biochemical; settings: ZMAL trypsin assay
T1 construct: purchased BPS Bioscience 50051
Description: (§1) [28] Assays for HDAC1/6 were prepared according to: B. Heltweg , J. Trapp , M. Jung , Methods 2005, 36, 332–337; assays for HDAC8 were prepared according to: J. Senger , J. Melesina , M. Marek , C. Romier , I. Oehme , O. Witt , W. Sippl , M. Jung , J. Med. Chem. 2016, 59, 1545–1555. […]
(§2) hHDAC1/6: Activity assays were performed in OptiPlateTM-96 F black microplates (PerkinElmer). Commercial available enzymes (human recombinant HDAC1; BPS Bioscience, catalog no. 50051 and human recombinant HDAC6; BPS Bioscience, catalog no. 50006) were used. Total assay volume of 60 µL contains 42 µl of assay buffer (50 mM Tris -HCl, pH 8.0, 137 mM NaCl, 2.7 mM KCl, 1 mM MgCl2, 0.2 mM TCEP and 1 mg/mL bovine serum albumin), 10 µL of enzyme solution in assay buffer, 3 µL of increasing concentrations of inhibitors in DMSO and 5 μL of the fluorogenic substrate ZMAL (Z -(Ac)Lys-AMC) (126 μM). After incubation (90 min, 37 °C) 60 µL of stop solution, containing 5 μL Trichostatin A (TSA) (33 μM) and 10 μL trypsin (6 mg/mL) in trypsin buffer (Tris-HCl 50 mM, pH 8.0, NaCl 100 mM), were added. […]

human recombinant HDAC6 = biological target: T2, human recombinant HDAC6 (Homo sapiens, UniProt Q9UBN7); test: ZMAL trypsin assay, HDAC6; assay type: biochemical; settings: for inhibition at 10 µM: ZMAL trypsin assay
T2 construct: purchased BPS Bioscience 50006
T2 sequence (Q9UBN7 1-1215): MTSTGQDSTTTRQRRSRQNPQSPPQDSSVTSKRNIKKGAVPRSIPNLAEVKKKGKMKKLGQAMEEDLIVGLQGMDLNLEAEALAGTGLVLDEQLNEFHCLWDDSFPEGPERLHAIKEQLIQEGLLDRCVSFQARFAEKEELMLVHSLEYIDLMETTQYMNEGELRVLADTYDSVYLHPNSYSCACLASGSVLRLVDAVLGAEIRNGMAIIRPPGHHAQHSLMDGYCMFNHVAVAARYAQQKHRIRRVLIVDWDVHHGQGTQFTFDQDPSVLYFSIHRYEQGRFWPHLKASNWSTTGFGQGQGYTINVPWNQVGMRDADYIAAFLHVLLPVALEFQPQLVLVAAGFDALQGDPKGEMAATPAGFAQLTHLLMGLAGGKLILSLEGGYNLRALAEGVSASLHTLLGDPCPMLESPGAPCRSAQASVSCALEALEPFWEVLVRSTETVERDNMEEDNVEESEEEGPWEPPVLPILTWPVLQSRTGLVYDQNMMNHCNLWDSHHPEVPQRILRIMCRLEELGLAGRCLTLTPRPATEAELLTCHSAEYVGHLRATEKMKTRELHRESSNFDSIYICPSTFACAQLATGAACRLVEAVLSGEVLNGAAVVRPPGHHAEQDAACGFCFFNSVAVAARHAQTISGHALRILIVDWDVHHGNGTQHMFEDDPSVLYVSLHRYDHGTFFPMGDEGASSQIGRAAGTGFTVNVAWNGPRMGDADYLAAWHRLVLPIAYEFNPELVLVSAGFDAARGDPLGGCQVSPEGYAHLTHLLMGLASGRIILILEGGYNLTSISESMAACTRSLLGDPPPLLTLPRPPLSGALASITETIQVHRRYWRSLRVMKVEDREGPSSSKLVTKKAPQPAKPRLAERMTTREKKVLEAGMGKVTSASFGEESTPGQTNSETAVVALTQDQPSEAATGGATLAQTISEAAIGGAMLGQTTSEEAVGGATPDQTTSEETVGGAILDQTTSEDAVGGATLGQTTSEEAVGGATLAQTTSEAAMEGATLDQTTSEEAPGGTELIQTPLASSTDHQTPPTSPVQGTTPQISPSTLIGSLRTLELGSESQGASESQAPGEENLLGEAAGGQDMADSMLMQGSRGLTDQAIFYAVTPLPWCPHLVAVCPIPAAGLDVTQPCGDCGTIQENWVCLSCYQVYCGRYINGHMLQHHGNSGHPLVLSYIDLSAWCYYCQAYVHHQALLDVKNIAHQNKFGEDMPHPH
Description: as §1, §2

T1 sequence (Q13547 whole entry): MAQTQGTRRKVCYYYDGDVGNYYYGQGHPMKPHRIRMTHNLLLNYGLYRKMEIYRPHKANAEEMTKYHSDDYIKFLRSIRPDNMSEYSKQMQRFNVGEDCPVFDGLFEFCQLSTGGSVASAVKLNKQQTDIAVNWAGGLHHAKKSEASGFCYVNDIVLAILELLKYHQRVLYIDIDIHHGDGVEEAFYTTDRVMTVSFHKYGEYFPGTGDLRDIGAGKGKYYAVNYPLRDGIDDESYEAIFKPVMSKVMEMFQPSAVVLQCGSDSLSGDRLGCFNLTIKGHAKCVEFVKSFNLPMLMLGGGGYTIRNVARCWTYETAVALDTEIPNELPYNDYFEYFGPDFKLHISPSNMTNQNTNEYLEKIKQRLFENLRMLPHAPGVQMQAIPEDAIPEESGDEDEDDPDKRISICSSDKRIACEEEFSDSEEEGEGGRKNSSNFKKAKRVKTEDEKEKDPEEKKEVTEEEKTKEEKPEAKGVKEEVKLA

SMILES | IC50 (human recombinant HDAC1) | inhibition at 10 µM (human recombinant HDAC6) | HDAC6 inhibition (in words) (human recombinant HDAC6)
CCCC[C@H]1NC(=O)C[C@@H](/C=C/CCC(=O)NO)OC(=O)C[C@H](O)[C@@H]([C@@H](C)CC)NC(=O)[C@@H](C)NC1=O [compound 8] | 28 ± 2 nM | 39% | –
CCCC[C@H]1NC(=O)C[C@@H](/C=C/CCSC(C)=O)OC(=O)C[C@H](O[Si](C)(C)C(C)(C)C)[C@@H]([C@@H](C)CC)NC(=O)[C@@H](C)NC1=O [compound 32] | 18700 ± 8900 nM | < 5% | not inhibited
CCCC[C@H]1NC(=O)C[C@@H](/C=C/CCSC(C)=O)OC(=O)C[C@H](O)[C@@H]([C@@H](C)CC)NC(=O)[C@@H](C)NC1=O [compound 33] | 12.3 ± 1.6 nM | 30% | –
